Assay results reported in ChEMBL document CHEMBL1201862, “PubChem BioAssay data set” (2004).
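Cells were grown in 96-well plates and exposed to each compound for 48 hours at five concentrations; endpoints were interpolated linearly between bracketing concentrations, or set to the highest concentration if not reached. GI50 is the concentration that inhibits growth by half.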 Activity calls are given as the source filed them. Cut-off read from the data, not from the text of the source: active = GI50 up to about 1.1 µM and inactive = higher.

Columns and labels:
Assay in all cases: NCI-60 cell line screen, 48 h
ACHN = tested on: ACHN
OVCAR-5 = tested on: OVCAR-5
SF-295 = tested on: SF-295
786-0 = tested on: 786-0
SW-620 = tested on: SW-620
HOP-62 = tested on: HOP-62
NCI-H460 = tested on: NCI-H460
Malme-3M = tested on: Malme-3M
OVCAR-4 = tested on: OVCAR-4
HT-29 = tested on: HT-29
DMS-273 = tested on: DMS-273
OVCAR-8 = tested on: OVCAR-8
SK-MEL-28 = tested on: SK-MEL-28
RXF 393 = tested on: RXF 393
MDA-N = tested on: MDA-N
NCI/ADR-RES = tested on: NCI/ADR-RES
DU-145 = tested on: DU-145
Hs-578T = tested on: Hs-578T
CCRF-CEM = tested on: CCRF-CEM
NCI-H522 = tested on: NCI-H522

| SMILES | GI50 (ACHN) | GI50 (OVCAR-5) | GI50 (SF-295) | GI50 (786-0) | GI50 (SW-620) | GI50 (HOP-62) | GI50 (NCI-H460) | GI50 (Malme-3M) | GI50 (OVCAR-4) | GI50 (HT-29) | GI50 (DMS-273) | GI50 (OVCAR-8) | GI50 (SK-MEL-28) | GI50 (RXF 393) | GI50 (MDA-N) | GI50 (NCI/ADR-RES) | GI50 (DU-145) | GI50 (Hs-578T) | GI50 (CCRF-CEM) | GI50 (NCI-H522) |
| --- | --- | --- | --- | --- | --- | --- | --- | --- | --- | --- | --- | --- | --- | --- | --- | --- | --- | --- | --- | --- |
| Cc1ccc(NC(=O)C(=O)Cc2nc3ccccc3o2)c(C)c1 | > 100 µM (inactive) | > 100 µM (inactive) | > 100 µM (inactive) | > 100 µM (inactive) | > 100 µM (inactive) | > 100 µM (inactive) | > 100 µM (inactive) | > 100 µM (inactive) | > 100 µM (inactive) | > 100 µM (inactive) | > 100 µM (inactive) | > 100 µM (inactive) | > 100 µM (inactive) | > 100 µM (inactive) | – | – | – | – | – | – |
| CCCCCc1nnc(NS(=O)(=O)c2ccc(NC(=O)OCC(C)C)cc2)s1 | 34.7 µM (inactive) | 54.7 µM (inactive) | 37.5 µM (inactive) | 40.8 µM (inactive) | 40.6 µM (inactive) | 44.5 µM (inactive) | 31 µM (inactive) | 34.9 µM (inactive) | 26.1 µM (inactive) | 26.8 µM (inactive) | – | 32.2 µM (inactive) | 41.8 µM (inactive) | 74.8 µM (inactive) | 32.3 µM (inactive) | 39.4 µM (inactive) | 52 µM (inactive) | 51.2 µM (inactive) | 26.4 µM (inactive) | 24.5 µM (inactive) |
| COc1ccc(/C=C/CN(C)CCc2ccccc2)cc1OC | > 100 µM (inactive) | 41.1 µM (inactive) | 53.5 µM (inactive) | > 100 µM (inactive) | 97.3 µM (inactive) | – | – | 62.4 µM (inactive) | – | 33.5 µM (inactive) | > 100 µM (inactive) | > 100 µM (inactive) | > 100 µM (inactive) | 51.2 µM (inactive) | – | – | – | – | – | – |
| Cc1cc(NS(=O)(=O)c2ccc(NC(=O)c3ccc4nc5ccccc5c(Nc5ccc(S(=O)(=O)N=C(N)N)cc5)c4c3)cc2)no1 | 13.6 µM (inactive) | 17.5 µM (inactive) | 16.9 µM (inactive) | 15.2 µM (inactive) | 20.8 µM (inactive) | 17.5 µM (inactive) | 17.4 µM (inactive) | 15.6 µM (inactive) | 14.3 µM (inactive) | 21.4 µM (inactive) | – | 18.2 µM (inactive) | 18.2 µM (inactive) | 15.3 µM (inactive) | 19.5 µM (inactive) | 25.2 µM (inactive) | 17.1 µM (inactive) | 20 µM (inactive) | 11.2 µM (inactive) | 17.1 µM (inactive) |
| N#Cc1sc2c(c1OC(=O)c1ccc(C(F)(F)F)cc1)c(=O)n(-c1ccccc1)c(=S)n2-c1ccccc1 | 26.2 µM (inactive) | 49.2 µM (inactive) | 25.6 µM (inactive) | 32.1 µM (inactive) | 40.2 µM (inactive) | 31.1 µM (inactive) | 30.3 µM (inactive) | 33 µM (inactive) | 33.8 µM (inactive) | 25.2 µM (inactive) | – | 23.2 µM (inactive) | 33.8 µM (inactive) | 14.8 µM (inactive) | 29.5 µM (inactive) | 27.9 µM (inactive) | 38.5 µM (inactive) | 26.2 µM (inactive) | 10.2 µM (inactive) | 0.107 µM (active) |
| Cc1cc(N(CCC#N)CCC#N)ccc1/C=N/NC(=O)c1ccccc1 | 85.3 µM (inactive) | > 80.5 µM (inactive) | 12.9 µM (inactive) | 31.6 µM (inactive) | 8.38 µM (inactive) | 31.8 µM (inactive) | 9.1 µM (inactive) | 33.2 µM (inactive) | 65.8 µM (inactive) | 3.79 µM (inactive) | – | 23.5 µM (inactive) | 31.5 µM (inactive) | 28.4 µM (inactive) | 2.86 µM (inactive) | 8.63 µM (inactive) | 26.1 µM (inactive) | 15.4 µM (inactive) | 23.1 µM (inactive) | 8.34 µM (inactive) |
| O=C1CCC2CCc3cccc4oc1c2c34 (stereo not drawn) | > 100 µM (inactive) | – | 10.6 µM (inactive) | > 100 µM (inactive) | > 100 µM (inactive) | > 100 µM (inactive) | > 100 µM (inactive) | – | > 100 µM (inactive) | > 100 µM (inactive) | > 100 µM (inactive) | > 100 µM (inactive) | > 100 µM (inactive) | > 100 µM (inactive) | – | – | – | – | > 100 µM (inactive) | – |
| Cc1ccc(NC(=O)CC(=O)N2N=C(N(C)c3ccccc3)CC2c2ccccc2)cc1 (stereo not drawn) | > 100 µM (inactive) | > 100 µM (inactive) | > 100 µM (inactive) | > 100 µM (inactive) | > 100 µM (inactive) | > 100 µM (inactive) | > 100 µM (inactive) | > 100 µM (inactive) | 68.5 µM (inactive) | > 100 µM (inactive) | – | 58.7 µM (inactive) | > 100 µM (inactive) | > 100 µM (inactive) | > 100 µM (inactive) | > 100 µM (inactive) | > 100 µM (inactive) | > 100 µM (inactive) | > 100 µM (inactive) | > 100 µM (inactive) |
